US20230263729A1, “POLY(ETHYLENE GLYCOL)-BLOCK-POLY(PROPYLENE SULFIDE) NANOCARRIER PLATFORM FOR ENHANCED EFFICACY OF IMMUNOSUPPRESSIVE AGENTS” (Northwestern University, priority 2019, published 2023)
Converted amounts (≈) assume the structure as drawn. Like-named read-outs stand apart in the source and are kept apart here.

Experiments:
RAW 264.7 cells [1] = assay: Cytotoxicity assay (calcein-AM / ethidium homodimer); assay type: cell-based
Description: Cytotoxicity assays—RAW 264.7 cells were plated into a 96 well black wall plates at 50,000 cells per well. Cells were then treated with Cel-MC or free celastrol, formulated as described above for the inhibition assays. After 16 h of incubation with free celastrol or Cel-MC formulations, cells were washed and incubated with 4 μM calcein-AM and 2 μM ethidium homodimer (Thermo Fisher), as described by the manufacturer. Readings were performed on an M3 plate reader, at excitation/emission wavelengths of 488/530 nm and 488/635 nm for calcein and ethidium homodimer, respectively. Readings were normalized as described by the manufacturer, accounting for background fluorescence and setting 100% viability for untreated cells and 0% viability for cells incubated with 100% methanol for 15 minutes.

[2] = in vivo; cited from earlier work
NF-κB = NF-κB inhibition assay in RAW Blue cells (SEAP reporter); assay type: cell-based; conditions: read-out: half maximal effective concentration (EC50), NF-κB inhibition
Description: Inhibition assays—NF-κB inhibition by celastrol was assayed using RAW Blue cells (Invivogen), a stably transfected cell line derived from RAW 264.7 macrophage-like cells, which contain the gene for secreted alkaline phosphatase (SEAP) downstream of the NF-κB promoter. Cells were seeded into a 96 well plate at 50,000 cells per well. NF-κB signalling was induced using 100 ng/mL LPS, with celastrol-loaded micelles and free celastrol (0.1% THF in 1×PBS vehicle) added to the cells concurrent with LPS administration. All micelle formulations contained the same amount of polymer (15 mg/mL) but were loaded with variable amounts of celastrol, and free celastrol formulations were prepared to match the concentration of loaded celastrol within Cel-MC formulations. Free celastrol formulation were made by diluting celastrol stock solutions in THF with 1×PBS to reach the appropriate celastrol concentration and 0.1% THF in 1×PBS. Cells were incubated for 16 hours, as per assay instructions, before supernatant was collected for quantification of SEAP activity, as described by the manufacturer. Colorimetric quantification of SEAP activity was performed on an M3 plate reader (SpectraMax) at an absorbance wavelength of 630 nm.

[3] = Celastrol quantification by HPLC: solubility, encapsulation efficiency, loading capacity, release; assay type: physicochemical
Description: Celastrol quantification—Celastrol solubility, encapsulation efficiency, and loading capacity were all assessed using high performance liquid chromatography (HPLC) using a Thermo Scientific C18 reverse phase column, with dimethylformamide (DMF) as the mobile phase at 0.5 mL/min. Area under the curve quantification of celastrol absorbance at 280 nm was performed using Thermo Fisher Chromeleon 7 software. A celastrol standard curve was constructed, with good linearity between celastrol concentrations of 2 mg/mL to 12.5 μg/mL, with 6.25 μg/mL being too close to the limit of detection for inclusion in the standard curve.
To determine the loading capacity of celastrol in micelles, defined here as the highest achievable mass of celastrol that can be stably loaded into 1 mg of micelles in 100 μL of 1×PBS, 1 mg of celastrol was added to 1 mg of PEG45-b-PPS20-Benzyl polymer in 500 uL THF in an HPLC vial. THF was removed by vacuum desiccation and micelles were formed via thin film rehydration with 100 μL of 1×PBS. […] Both samples (column filtered and unfiltered) were then lyophilized and redissolved in 200 μL DMF and celastrol content was quantified via HPLC.
To determine the encapsulation efficiency of celastrol in micelles, defined as the percentage of the originally added celastrol mass that is stably encapsulated in micelles after filtration to remove unencapsulated celastrol, micelles were formed as described above with variable amounts of celastrol, and were filtered using an LH-20 column. Filtered micelles were lyophilized and redissolved in 200 μL DMF and celastrol content was quantified via HPLC.
To determine the solubility of celastrol in aqueous buffer, 1 mg of celastrol was added to a glass vial along with 10 mL of 1×PBS. […] The lyophilized powder was resuspended in 200 μL DMF and celastrol was quantified via HPLC.
Celastrol release from micelles into 1×PBS with or without oxidative trigger was determined as follows. […] Absorbance at 424 nm, an absorbance peak for celastrol, were taken using a SpectraMax M3 plate reader using a 96-well plate.

RAW 264.7 cells [4] = assay: Apoptosis of RAW 264.7 cells with or without LPS; assay type: cell-based; conditions: 1 μg/mL celastrol, 4 h
Description: Celastrol has been investigated as a potential anti-cancer therapeutic due to its ability to induce cell death, and potentially binds to a number of proteins involved in apoptosis. As the manner of cell death can influence the downstream immune response, the onset of apoptosis upon treatment with celastrol was evaluated. Since NF-κB signalling in RAW 264.7 cells results in the secretion of TNF-α (FIG. 27C), an inducer of apoptosis in some contexts as well as cell survival and proliferation in others, the effect of the presence or absence of LPS during celastrol treatment on the induction of apoptosis or necrosis was assessed.

## CC1=C(O)C(=O)C=C2C1=CC=C1[C@@]2(C)CC[C@@]2(C)[C@@H]3C[C@](C)(C(=O)O)CC[C@]3(C)CC[C@]12C [celastrol]
RAW 264.7 cells [1]
  cell viability as the dosage of celastrol is decreased: not
RAW 264.7 cells [1]; 0.8 mg/mL celastrol
  cytotoxicity to RAW 264.7 cells: highly cytotoxic
[2]
  serum half-life (T1/2β): 8 to 10 h
NF-κB; 100 ng/mL LPS, 16 hours
  EC50: 0.2 µg/mL (≈ 0.444 µM)
NF-κB; LPS
  EC50: 0.2 µg/mL (≈ 0.444 µM)
[3]
  theoretical solubility in nanocarriers, times higher than unencapsulated celastrol: over 10,000 times
[3]; 200 mg/mL of polymer, loading capacity 22%
  theoretical celastrol ‘solubility’ in 1×PBS when loaded in PEG-b-PPS nanocarriers: 44000 µg/mL
[3]; aqueous buffer, thermodynamic from solid, detected in 1 mL of 1×PBS at 37 C, read-out: celastrol dissolved in aqueous buffer (solubility)
  solubility at 1 h: 3.5 µg/mL (≈ 7.77 µM)
RAW 264.7 cells [4]; in the absence of LPS
  apoptotic cells: 16.5±1.8%
RAW 264.7 cells [4]; in the presence of LPS
  apoptotic cells: 37.5±4.4%
